Target: T1, hCBS-FL wild type (293T-CBS WT) (Homo sapiens, UniProt P35520)
T1 construct: human CBS or hCSE full-length (CBS-FL or CSE) was subcloned into pGEX-KG, pcDNA3 or pCDH vector; expressed in transfected cells
T1 sequence (P35520 1-551): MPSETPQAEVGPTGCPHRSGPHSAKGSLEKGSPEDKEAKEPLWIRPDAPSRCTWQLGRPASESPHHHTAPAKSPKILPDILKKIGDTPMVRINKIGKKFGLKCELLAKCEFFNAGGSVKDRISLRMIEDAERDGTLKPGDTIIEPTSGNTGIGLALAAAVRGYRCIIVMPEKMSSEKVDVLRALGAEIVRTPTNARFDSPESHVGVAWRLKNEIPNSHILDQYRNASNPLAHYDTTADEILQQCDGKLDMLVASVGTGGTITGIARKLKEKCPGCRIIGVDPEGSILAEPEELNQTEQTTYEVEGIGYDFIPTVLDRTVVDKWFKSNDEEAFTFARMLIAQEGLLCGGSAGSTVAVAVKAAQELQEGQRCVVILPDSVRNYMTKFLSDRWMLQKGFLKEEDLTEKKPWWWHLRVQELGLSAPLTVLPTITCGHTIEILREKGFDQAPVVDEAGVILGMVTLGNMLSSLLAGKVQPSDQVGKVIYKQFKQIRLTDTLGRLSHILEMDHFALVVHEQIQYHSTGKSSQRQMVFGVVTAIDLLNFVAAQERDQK
Experiment: H2S in HEK293T cells stably expressing hCBS WT (AzMC probe)
Type: cell-based
Details: 8 h, 293T-CBS WT
Method: HEK293T cells were transiently transfected with empty vector (EV, i and ii), hCBS-FL (iii and iv) or hCSE (v and vi) plasmids, followed by incubation with DMSO (i–iii and v) or 10 μM CH004 (iv and vi) for 8 h before staining with 50 μM AzMC, a H2S-specific probe (“Materials and Methods” section). For larger fluorescent and bright-field images, please see Supplementary Figure 4. The expression levels of hCBS or hCSE in HEK293T cells after transient transfections were determined by western blotting using an anti-CBS antibody (3E1, 1:2000; Abnova) or anti-CSE antibody (1:500, GeneTex). The densities of protein bands for hCBS or hCSE in the blots were quantified with the ImageJ software (National Institutes of Health, Bethesda, MD, USA) and expressed as ratios of respective control (EV group). All immunoblots are representative of at least two independent experiments using GAPDH as the loading control. The fluorescent images of the H2S (blue) were accordingly quantified (“Materials and Methods” section) with ImageJ. […] The DMSO groups of the controls (CTR), which are expressing of hCBS or hCSE, were normalized to 100% and the levels of H2S in CH004-treated or EV group are shown as relative percentages. c, d CH004 dose-dependently suppresses the activity of hCBS WT without affecting the activity of CH004-insensitive mutant. HEK293T cells stably expressing EV (i and ii), hCBS-FL wild type (293T-CBS WT; iii–v) or CBS-FL mutant (293T-CBS Q222A, vi–viii) were treated with DMSO (i–iii and vi), 5 μM CH004 (iv, vii) or 10 μM CH004 (v, viii) for 8 h before staining with the AzMC. For larger fluorescent and bright-field images, please see Supplementary Figures 5–6. […] The DMSO groups of the controls (CTR), which are expressing of hCBS-FL wt or Q222A mutant, were normalized to 100% and the levels of H2S in CH004-treated or EV group are shown as relative percentages. A representative fluorescence image from three independent experiments is shown. Means ± SDS (n = 3). Statistical analyses were performed on the raw data for each group by one-way (b) or two-way (d) ANOVA with Bonferroni post-tests. ***p < 0.001. Bars, 50 μm
H2S levels in living cells were detected using a H2S-specific fluorescent probe according to a protocol described previously[31],[55]. To measure H2S in transiently transfected HEK293T cells, the cells were seeded on poly-D-Lys-coated coverslips (Thermo Scientific, Waltham, MA, USA) in 12-well plates at a density of ~ 1 × 10^5 cells per well, and hCBS or hCSE plasmids were transiently transfected by X-tremeGENE HP DNA Transfection Reagent according to the manufacturer’s protocol (Roche, Basel, Switzerland). […] After incubation with 50 μM AzMC at 37 °C for 30 min, the cells were washed 4 times with PBS, and the fluorescent images were recorded with excitation by 405 nm laser by using a A1Si (Nikon) confocal microscope. The intensity of the blue fluorescent signals, indicating the amount of H2S, was quantified by ImageJ software (NIH, Bethesda, ML). The H2S signal was then corrected for the background signal detected in HEK293T cells transiently or stably expressing of empty vector (HEK293T-EV) and normalized by the corresponding cell-occupying area and compared with the control (DMSO group, 100%). Similarly, the H2S signal in HepG2 cells was quantified by AzMC staining, corrected for the background signal outside the cells, normalized by the cell area and expressed as percentages of DMSO control (100%). […]

Cn1nc(Cc2ccccc2)nc2c(=O)n(C)c(=O)nc1-2 [CH004, 3-benzyl-1,6-dimethylpyrimido[5,4-e][1,2,4]triazine-5,7(1H,6H)-dione]
decrease in H2S (5 μM): 22% | decrease in H2S (10 μM): 43%

— article PMC6158189, “A pharmacological probe identifies cystathionine β-synthase as a new negative regulator for ferroptosis” (Cell Death & Disease, 2018)
